Consider 22 molecules from ChEMBL document CHEMBL6127042, “Design, synthesis and antimycobacterial activity of novel benzothiazinones with improved water solubility” (Eur J Med Chem, 2024).

Each structure is given as a SMILES string. In brackets after ≈: the same amount, converted by molar mass.

Data set [1] relates to Mycobacterium tuberculosis. The experiment in a line: Antitubercular activity against Mycobacterium tuberculosis H37Rv ATCC 27294 assessed as bacterial growth inhibition incubated for 7 days in 7H9 medium by alamar blue staining based microplate fluorometric analysis. Format: functional. As to conditions: H37Rv ATCC 27294, 168 h, time 7 day. (Alamar Blue is a resazurin reagent that responds to reducing activity.)

Data set [2] can be described thus: Acute toxicity in female ICR mouse assessed as lethal dose administered as single oral dose measured for 7 days. To be noted: in vivo, time 7 day.
A further data set deals with hERG (KCNH2) (Homo sapiens, UniProt Q12809). Nature of the data set: Inhibition of human ERG expressed in HEK293 cells at 10 uM by electrophysiological method relative to control. Format: toxicity, cell-based. As to conditions: HEK293 cells expressing hERG.
Data set [3] is described as follows: Cmax in female ICR mouse at 25 mg/kg, po administered as single dose measured upto 24 hrs by HPLC analysis. As to conditions: in vivo. Format: ADME, organism-based.
Data set [4] in a line: Half life in female ICR mouse at 25 mg/kg, po administered as single dose measured upto 24 hrs by HPLC analysis. Format: ADME, organism-based. To be noted: in vivo.
Data set [5] is described as follows: AUC (0 to infinity) in female ICR mouse at 25 mg/kg, po administered as single dose measured upto 24 hrs by HPLC analysis. Format: ADME, organism-based. As to conditions: in vivo.
Data set [6] can be described thus: Acute toxicity in female ICR mouse assessed as animal death at 1000 mg/kg, po administered as single dose measured for 7 days. Format: organism-based. To be noted: in vivo, 168 h, time 7 day.
A short description of data set [7]: Tmax in female ICR mouse at 25 mg/kg, po administered as single dose measured upto 24 hrs by HPLC analysis. As to conditions: in vivo. Format: ADME, organism-based.
A short description of data set [8]: Water solubility of the compound in 60% acetronitrile/40% water meausred after 24 hrs by HPLC-UV analysis. Format: physicochemical. As to conditions: 60% acetonitrile/40% water.
Data set [9] in a line: Acute toxicity in female ICR mouse assessed as change in body weight at 1000 mg/kg, po administered as single dose measured for 7 days. Format: organism-based. As to conditions: in vivo, 168 h, time 7 day.
The nature of data set [10]: Cytotoxicity against African green monkey Vero cells assessed as reduction in cell viability incubated for 72 hrs by MTT assay. Format: toxicity, cell-based. As to conditions: chlorocebus sabaeus. In general terms: Tetrazolium dyes change colour on reduction, which living cells bring about.
The nature of data set [11]: Water solubility of the compound in 80% acetronitrile/20% water meausred after 24 hrs by HPLC-UV analysis. Format: physicochemical. To be noted: 80% acetonitrile/20% water.

hERG (KCNH2), sequence (Q12809 whole entry): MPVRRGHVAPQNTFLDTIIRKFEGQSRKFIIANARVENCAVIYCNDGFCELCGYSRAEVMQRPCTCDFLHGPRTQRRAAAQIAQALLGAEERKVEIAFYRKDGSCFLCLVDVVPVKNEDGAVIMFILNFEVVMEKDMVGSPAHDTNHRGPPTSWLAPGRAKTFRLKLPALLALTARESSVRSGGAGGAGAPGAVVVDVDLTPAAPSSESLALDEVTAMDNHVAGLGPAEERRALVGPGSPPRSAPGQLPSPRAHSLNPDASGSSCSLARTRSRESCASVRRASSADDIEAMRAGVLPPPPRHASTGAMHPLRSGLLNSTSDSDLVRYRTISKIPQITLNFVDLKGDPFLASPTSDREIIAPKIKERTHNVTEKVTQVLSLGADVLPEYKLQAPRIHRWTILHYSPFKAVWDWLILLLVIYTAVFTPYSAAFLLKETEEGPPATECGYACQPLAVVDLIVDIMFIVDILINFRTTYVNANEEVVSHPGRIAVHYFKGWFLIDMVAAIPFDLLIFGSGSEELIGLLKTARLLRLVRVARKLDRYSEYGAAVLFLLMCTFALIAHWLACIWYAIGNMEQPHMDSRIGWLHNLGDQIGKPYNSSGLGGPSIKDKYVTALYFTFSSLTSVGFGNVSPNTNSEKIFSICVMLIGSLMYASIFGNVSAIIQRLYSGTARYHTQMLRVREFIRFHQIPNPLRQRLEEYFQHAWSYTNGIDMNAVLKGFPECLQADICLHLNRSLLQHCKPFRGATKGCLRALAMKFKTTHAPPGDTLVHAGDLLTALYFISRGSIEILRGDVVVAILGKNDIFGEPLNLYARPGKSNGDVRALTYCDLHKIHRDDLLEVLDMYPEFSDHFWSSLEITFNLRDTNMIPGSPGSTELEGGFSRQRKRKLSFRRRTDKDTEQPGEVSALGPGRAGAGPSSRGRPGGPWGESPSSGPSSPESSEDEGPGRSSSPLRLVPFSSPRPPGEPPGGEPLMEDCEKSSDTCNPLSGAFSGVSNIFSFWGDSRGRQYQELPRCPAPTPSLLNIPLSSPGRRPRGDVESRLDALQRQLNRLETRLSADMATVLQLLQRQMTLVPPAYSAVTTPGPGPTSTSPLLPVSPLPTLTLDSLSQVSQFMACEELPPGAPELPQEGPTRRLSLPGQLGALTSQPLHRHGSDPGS

`O=C(O)CNC(=O)CON=C1CCC(CN2CCN(c3nc(=O)c4cc(C(F)(F)F)cc([N+](=O)[O-])c4s3)CC2)CC1` (configuration not stated): in data set [1], the MIC was 1.54 µM (≈ 0.925 µg/mL).
Take `C[C@H](NC(=O)CON=C1CCC(CN2CCN(c3nc(=O)c4cc(C(F)(F)F)cc([N+](=O)[O-])c4s3)CC2)CC1)C(=O)O` (some centres not stated): the MIC in data set [1] turned out to be 2.9 µM (≈ 1.79 µg/mL).
On to `NCCON=C1CCC(CN2CCN(c3nc(=O)c4cc(C(F)(F)F)cc([N+](=O)[O-])c4s3)CC2)CC1` (configuration not stated), for which, in data set [1], the MIC came to 0.091 µM (≈ 0.0481 µg/mL). Besides, the LD50 at 168 h in data set [2] was more than 1000 mg/kg. At hERG (KCNH2), this molecule registered an inhibition at 10 µM of 5.66%. Moreover, in data set [3], the Cmax was 798 ng/mL. In data set [4], this molecule gave a half-life of 3.6 h. The AUC(0-inf) in data set [5] was found to be 3840 ng·h/mL. In addition, the Activity entry was “Non-Toxic” in [6] and “Toxic” in data set [9]. For the same molecule, in data set [7], the time to peak (Tmax) was 1 h. In data set [8], this molecule showed a solubility at 24 h of more than 2000 µg/mL.
Consider `O=C(O)CCON=C1CCC(CN2CCN(c3nc(=O)c4cc(C(F)(F)F)cc([N+](=O)[O-])c4s3)CC2)CC1` (configuration not stated), for which the MIC in data set [1] amounted to 0.214 µM (≈ 0.119 µg/mL). The CC50 at 72 h in [10] was more than 115 µM.
The like results for `CC(C)(C)OC(=O)CNC(=O)CCON=C1CCC(CN2CCN(c3nc(=O)c4cc(C(F)(F)F)cc([N+](=O)[O-])c4s3)CC2)CC1` (configuration not stated) were, in that order, less than 0.026 µM and more than 95 µM.
For the molecule `CC(C)(ON=C1CCC(CN2CCN(c3nc(=O)c4cc(C(F)(F)F)cc([N+](=O)[O-])c4s3)CC2)CC1)C(=O)NCC(=O)O` (configuration not stated), the minimal inhibitory concentration (MIC) in data set [1] stood at 0.653 µM (≈ 0.41 µg/mL). The molecule also came in with a solubility at 24 h in data set [11] of 530 µg/mL (≈ 843 µM).
`CO[C@H]1/C=C/O[C@@]2(C)Oc3c(C)c(O)c4c(O)c(c(/C=N/N5CCN(C)CC5)c(O)c4c3C2=O)NC(=O)/C(C)=C\C=C\[C@H](C)[C@H](O)[C@@H](C)[C@@H](O)[C@@H](C)[C@H](OC(C)=O)[C@@H]1C` [RIFAMPIN]: the MIC in data set [1] came out at 0.04 µM (≈ 0.0329 µg/mL).
The same measure, in the same setting: under `NNC(=O)c1ccncc1` [ISONIAZID] stands 0.342 µM (≈ 0.0469 µg/mL).
For the molecule `CC(C)(C)OC(=O)CNC(=O)C(C)(C)ON=C1CCC(CN2CCN(c3nc(=O)c4cc(C(F)(F)F)cc([N+](=O)[O-])c4s3)CC2)CC1` (configuration not stated), the MIC in data set [1] was 0.086 µM (≈ 0.0589 µg/mL). For the same molecule, the CC50 at 72 h in data set [10] was more than 94 µM. The concentration in solution in [11] (solubility at 24 h) was 4 µg/mL (≈ 5.84 µM).
For `CC(C)(ON=C1CCC(CN2CCN(c3nc(=O)c4cc(C(F)(F)F)cc([N+](=O)[O-])c4s3)CC2)CC1)C(=O)O` (configuration not stated), in that order: 0.114 µM (≈ 0.0652 µg/mL), more than 112 µM and 490 µg/mL (≈ 857 µM).
Regarding `CON=C1CCC(CN2CCN(c3nc(=O)c4cc(C(F)(F)F)cc([N+](=O)[O-])c4s3)CC2)CC1` (configuration not stated), in [1], the MIC was less than 0.035 µM. The Cmax in data set [3] worked out at 8370 ng/mL. Also, in data set [4], the half-life was 5.24 h. In [5], this molecule registered an AUC(0-inf) of 16900 ng·h/mL. For the same molecule, the concentration in solution in data set [11] (solubility at 24 h) came to 1.6 µg/mL (≈ 3.2 µM). Besides, the Tmax in [7] was 0.69 h.
Take `COC(=O)CNC1CCC(CN2CCN(c3nc(=O)c4cc(C(F)(F)F)cc([N+](=O)[O-])c4s3)CC2)CC1` (configuration not stated): the MIC in [1] is 1.05 µM (≈ 0.573 µg/mL).
For `CC(C)(C)OC(=O)CCON=C1CCC(CN2CCN(c3nc(=O)c4cc(C(F)(F)F)cc([N+](=O)[O-])c4s3)CC2)CC1` (configuration not stated), in data set [1], the MIC was less than 0.026 µM. Moreover, the CC50 at 72 h in data set [10] was more than 104 µM.
For `O=C(O)CNC(=O)CCON=C1CCC(CN2CCN(c3nc(=O)c4cc(C(F)(F)F)cc([N+](=O)[O-])c4s3)CC2)CC1` (configuration not stated), in that order: 0.338 µM (≈ 0.208 µg/mL) and more than 104 µM.
For the molecule `CC(C)(C)OC(=O)NCCON=C1CCC(CN2CCN(c3nc(=O)c4cc(C(F)(F)F)cc([N+](=O)[O-])c4s3)CC2)CC1` (configuration not stated), the MIC in [1] worked out at 0.033 µM (≈ 0.0207 µg/mL). In [10], the CC50 at 72 h was more than 102 µM. Moreover, in data set [11], the solubility at 24 h was 2.4 µg/mL (≈ 3.82 µM).
As for `O=c1nc(N2CCN(CC3CCCCC3)CC2)sc2c([N+](=O)[O-])cc(C(F)(F)F)cc12` [MACOZINONE], in [1], the MIC was less than 0.035 µM. Besides, in [10], the CC50 at 72 h was more than 140 µM. Further, in [3], the Cmax was found to be 295 ng/mL. Moreover, the half-life in [4] is 6.43 h. In addition, in data set [5], the AUC(0-inf) was 2310 ng·h/mL. Further, the solubility at 24 h in data set [11] came to 1.1 µg/mL (≈ 2.41 µM). Also, in [7], the Tmax came to 2 h.
Turning to `O=C(O)CON=C1CCC(CN2CCN(c3nc(=O)c4cc(C(F)(F)F)cc([N+](=O)[O-])c4s3)CC2)CC1` (configuration not stated), the MIC in [1] was less than 0.029 µM. The LD50 at 168 h in [2] is more than 1000 mg/kg. In addition, the CC50 at 72 h in data set [10] was more than 118 µM. Besides, the inhibition at 10 µM against hERG (KCNH2) was 5.8%. Further, the Cmax in [3] came to 770 ng/mL. Moreover, in data set [4], the half-life is 3.06 h. The AUC(0-inf) in data set [5] was found to be 1410 ng·h/mL. In addition, the solubility at 24 h in data set [11] was found to be 1200 µg/mL (≈ 2210 µM). Besides, the Activity entry in [6] is listed as “Non-Toxic”; in data set [9], “Toxic”. Also, in data set [7], the Tmax turned out to be 0.33 h.
`O=C(O)CNC1CCC(CN2CCN(c3nc(=O)c4cc(C(F)(F)F)cc([N+](=O)[O-])c4s3)CC2)CC1` (configuration not stated): the MIC in data set [1] was more than 18.9 µM. In addition, the CC50 at 72 h in data set [10] is more than 121 µM.
As to `C[C@H](NC(=O)C(C)(C)ON=C1CCC(CN2CCN(c3nc(=O)c4cc(C(F)(F)F)cc([N+](=O)[O-])c4s3)CC2)CC1)C(=O)O` (some centres not stated), the MIC in [1] was 1.33 µM (≈ 0.853 µg/mL).
For the molecule `C[C@H](NC(=O)CON=C1CCC(CN2CCN(c3nc(=O)c4cc(C(F)(F)F)cc([N+](=O)[O-])c4s3)CC2)CC1)C(=O)OC(C)(C)C` (some centres not stated), the MIC in data set [1] came to 0.181 µM (≈ 0.121 µg/mL). Moreover, in data set [10], the CC50 at 72 h was more than 95 µM.
The like results for `C[C@H](NC(=O)C(C)(C)ON=C1CCC(CN2CCN(c3nc(=O)c4cc(C(F)(F)F)cc([N+](=O)[O-])c4s3)CC2)CC1)C(=O)OC(C)(C)C` (some centres not stated) were, in that order, less than 0.023 µM and more than 92 µM.
As to `CC(C)(C)OC(=O)CNC(=O)CON=C1CCC(CN2CCN(c3nc(=O)c4cc(C(F)(F)F)cc([N+](=O)[O-])c4s3)CC2)CC1` (configuration not stated), the MIC in data set [1] amounted to 0.044 µM (≈ 0.0289 µg/mL). Besides, the CC50 at 72 h in data set [10] is more than 98 µM.

Usually MIC stands for the least concentration at which growth counts as inhibited. Broadly, the LD50 is the dose at which mortality reaches 50%. As a reminder, the inhibition is the percentage by which the read-out fell short of the control. In general, Cmax refers to the maximum level reached in the sampled fluid or tissue. A word on the half-life: it is how long it takes for the measured level to halve. One may read the AUC(0-inf) as total exposure, with the tail of the curve extrapolated. A word on the Tmax: it is the time from dosing to the highest level. As a reminder, the solubility is how much of the substance goes into solution per volume. Usually CC50 stands for the concentration giving 50% cytotoxicity.
